Measurements from US9910031B2, “Compositions and methods for modulating c-Rel-dependent cytokine production” (Synta Pharmaceuticals Corporation, priority 2003, dated 2018).

How the values were obtained:
IL-12 p35 mRNA [1] = assay: Northern blot of IL-12 p35 mRNA in IFN-γ/SAC-stimulated THP-1 cells; assay type: cell-based, human; conditions: THP-1, IFN-γ/SAC, 1 μM Compound 1
Description: (§1) Northern blot analysis was performed to examine the mRNA levels of IL-12 p35 and p40. Human PBMC and the human monocyte cell line THP-1 cells were stimulated with IFN-γ/SAC in the presence or absence of Compound 1. Human PBMC were isolated by centrifugation using Ficoll-Paque (Pharmacia Biotech, Uppsala, Sweden) and prepared in RPMI medium supplemented with 10% fetal calf serum (FCS), 100 U/ml penicillin, and 100 μg/ml streptomycin, in a 96-well plate with 5×10^5 cells/well. The cells were then primed with IFN-γ (100 U/ml) and followed by 0.01% SAC or 1 μg/ml LPS, in the presence of different concentrations of Compound 2 or other compounds. The test compounds were prepared in DMSO and the final DMSO concentration was adjusted to 0.25% in all cultures, including the compound-free control. Cell-free supernatants were taken 18 h later for the measurement of cytokines. The THP-1 cells were obtained from American Type Culture Collection (Manassas, Va.) and were cultured in RPMI 1640 (ATCC, Manassas, Va.), supplemented with 10% FCS (ATCC, Manassas, Va.), and 1% penicillin/Streptomycin (Gibco-BRL, New York, N.Y.). Total RNA was isolated and subjected to Northern blot analysis using IL-12 p35 and p40 cDNA probes. We first examined the kinetics of mRNA accumulation in cultures of hPBMC and THP-1 cells primed with IFN-γ followed by SAC stimulation in the presence or absence of 1 μM Compound 1.

NFκB = assay: Gel-shift assay of NFκB binding to the IL-12 p40 promoter site, THP-1 nuclear extracts; assay type: cell-based, human; conditions: IFN-γ-primed, SAC-stimulated THP-1; 1 μM Compound 1 or 10 mM ASA
Description: (§2) Nuclear extracts were prepared from IFN-γ-primed THP-1 cells that had been treated with or without SAC and incubated in the presence or absence of 1 μM Compound 1 or 10 mM ASA. Isolation of nuclear extracts was accomplished by first suspending THP-1 cells in 20 volumes of buffer A containing 10 mM KCl, 10 mM HEPES (pH 7.9), 1 mM MgCl2, 1 mM dithiothreitol (DTT), 0.1% Nonidet p40 (NP-40), and 0.5 mM phenylmethylsulfonyl fluoride (PMSF) and then homogenizing and centrifuging at 10,000 rpm at 4° C. for 5 min. Nuclear pellets were then suspended in buffer C containing 400 mM NaCl, 20 mM HEPES pH 7.9), 15 mM MgCl2, 0.2 mM EDTA, 1 mM DTT, 25% glycerol, 1 mM PMSF, and 10 μg of leupeptin, 20 μg of pepstatin, and 10 μg of antipain per ml, incubated for 30 min at 4° C., and centrifuge at 14,000 rpm for […]. The supernatants were dialyzed against buffer D containing 100 mM NaCl, 20 mM HEPES (pH 7.9), 20% glycerol, 1 mM PMSF, and 1 mM DTT.
The extracts obtained from this process were used in gel-shift assays using oligonucleotides containing the NFκB target sequence corresponding to the region −121 to −102 from the transcription initiation site of IL-12 p40 or a mutated NFκB binding site. […] This interaction was specific as it was competed away by an excess of unlabeled probe, but not by a mutated oligonucleotide in which two base-pairs were substituted. […]

IL-12 p35 mRNA [2] = assay: Northern blot of IL-12 p35 mRNA in IFN-γ/SAC-stimulated human PBMC; assay type: cell-based; conditions: hPBMC
Description: as §1
We conducted a dose-response study of the inhibitory effects of Compound 1 on IL-12 mRNA expression in IFN-γ/SAC-stimulated hPBMC. Because both IL-12 p35 and p40 mRNA levels were maximal at 6 h after the addition of SAC, this time point was selected for the dose-response analysis.

p65 = assay: ELISA based transcriptional factor-DNA binding activity assay, THP-1 nuclear extracts, p65; assay type: cell-based, human; conditions: IFN-γ/LPS, 500 nm, 3 hrs
Description: as §2
To understand the action of Compound 2 in NF-κB binding, several NF-κB family members, p50, c-Rel and p65 were investigated using an ELISA based transcriptional factor-DNA binding activity assay system. […]

IκBα = assay: Inducible degradation of IκBα, Western blot and FACS analysis; assay type: cell-based, human; conditions: THP-1 and RAW267.4 cells, IFN-γ/LPS or IFN-γ/SAC, 500 nM, 30 min and 2 hrs
Description: IκB degradation is one of the steps in the signaling pathway of NFκB dependent genes. The activity of Compound 2 in inducible degradation of IκBα □ and IκBβ was investigated in THP-1 cells using Western blot and FACS analysis. […] Similar results were observed from the Compound 2 pre-treatment samples in which Compound 2 was added […] before stimulation.

C(=NNc1nc(OCCc2ccccn2)nc(N2CCOCC2)n1)c1c[nH]c2ccccc12 [Compound 1, N-(1H-indol-3-ylmethylene)-N′-[4-morpholin-4-yl-6-(2-pyridin-2-yl-ethoxy)-[1,3,5]triazin-2-yl]-hydrazine]
IL-12 p35 mRNA (IL-12 p35 mRNA [1]): undetectable | NFκB binding to p40 promoter probe (gel shift) (NFκB): did not show any influence | IC50 (IL-12 p35 mRNA [2]; Homo sapiens, PBMC, 6 h after SAC, read-out: IC50, IL-12 p35 mRNA accumulation): < 1 nM | expression of p35 mRNA (IL-12 p35 mRNA [2]; 1 μM Compound 1, all sampling times): completely inhibited | induction of IL-12 p35 mRNA accumulation (IL-12 p35 mRNA [2]; 6 h after SAC, 3 nM): completely reversed

Cc1cccc(C=NNc2cc(N3CCOCC3)nc(OCCc3ccccn3)n2)c1 [Compound 2, N-(3-methyl-benzylidene)-N′-[6-morpholin-4-yl-2-(2-pyridin-2-yl-ethoxy)-pyrimidin-4-yl]-hydrazine]
binding activity of p65 (p65): increased binding activity | amount of IκBα in the cytoplasm, treated vs untreated (IκBα): no significant difference
